{"source": "ChEMBL document CHEMBL4024733", "about": "“An unusual spinaceamine-bearing pregnane from a soft coral Scleronephthya sp. inhibits the migration of tumor cells” (Bioorg Med Chem Lett, 2017)", "type_in_all_cases": "functional, cell-based", "key": {"B16 [1]": {"test_system": "B16", "test": "Antimigratory activity against mouse B16 cells assessed as decrease in TGFbeta mRNA level by SYBR staining based real-time qPCR assay"}, "B16 [2]": {"test_system": "B16", "test": "Antimigratory activity against mouse B16 cells assessed as decrease in IL-6 mRNA level by SYBR staining based real-time qPCR assay"}, "B16 [3]": {"test_system": "B16", "test": "Antimigratory activity against mouse B16 cells after 24 hrs by crystal violet staining based inverted microscopic method"}, "A549": {"test_system": "A549", "test": "Antimigratory activity against human A549 cells after 24 hrs by crystal violet staining based inverted microscopic method"}, "B16 [4]": {"test_system": "B16", "test": "Antimigratory activity against mouse B16 cells assessed as inhibition of MMP2 mRNA level after 24 hrs by SYBR staining based real-time qPCR assay", "conditions": "B16, 24 h"}, "B16 [5]": {"test_system": "B16", "test": "Antimigratory activity against mouse B16 cells assessed as inhibition of VEGF mRNA level after 24 hrs by SYBR staining based real-time qPCR assay", "conditions": "B16, 24 h"}, "B16 [6]": {"test_system": "B16", "test": "Antimigratory activity against mouse B16 cells assessed as decrease in TNFalpha mRNA level by SYBR staining based real-time qPCR assay"}, "B16 [7]": {"test_system": "B16", "test": "Antimigratory activity against mouse B16 cells assessed as inhibition of MMP9 mRNA level after 24 hrs by SYBR staining based real-time qPCR assay", "conditions": "B16, 24 h"}, "B16 [8]": {"test_system": "B16", "test": "Antimigratory activity against mouse B16 cells assessed as decrease in IL-1beta mRNA level by SYBR staining based real-time qPCR assay"}}}
{"smiles": "C=C[C@H]1CC[C@H]2[C@@H]3CC[C@H]4CC(=O)/C(=C5\\NC=Cc6nc[nH]c65)C(=O)[C@]4(C)[C@H]3CC[C@]12C", "values": [{"measurement": "Activity", "setting": "B16 [1]", "value": "Dose-dependent effect"}, {"measurement": "Activity", "setting": "B16 [2]", "value": "Dose-dependent effect"}, {"measurement": "Activity", "setting": "B16 [3]", "value": "Dose-dependent effect"}, {"measurement": "Activity", "setting": "A549", "value": "Dose-dependent effect"}, {"measurement": "IC50", "setting": "B16 [4]", "value": 5.8, "unit": "µM"}, {"measurement": "IC50", "setting": "B16 [5]", "value": 7.6, "unit": "µM"}, {"measurement": "Activity", "setting": "B16 [6]", "value": "Dose-dependent effect"}, {"measurement": "IC50", "setting": "B16 [7]", "value": 12.4, "unit": "µM"}, {"measurement": "Activity", "setting": "B16 [8]", "value": "Dose-dependent effect"}]}
{"smiles": "C=C[C@H]1CC[C@H]2[C@@H]3CC[C@H]4CC(=O)/C(=C5\\NCCc6nc[nH]c65)C(=O)[C@]4(C)[C@H]3CC[C@]12C", "values": [{"measurement": "Activity", "setting": "B16 [1]", "value": "Dose-dependent effect"}, {"measurement": "Activity", "setting": "B16 [2]", "value": "Dose-dependent effect"}, {"measurement": "Activity", "setting": "B16 [3]", "value": "Dose-dependent effect"}, {"measurement": "Activity", "setting": "A549", "value": "Dose-dependent effect"}, {"measurement": "IC50", "setting": "B16 [4]", "value": 6.6, "unit": "µM"}, {"measurement": "IC50", "setting": "B16 [5]", "value": 8.4, "unit": "µM"}, {"measurement": "Activity", "setting": "B16 [6]", "value": "Dose-dependent effect"}, {"measurement": "IC50", "setting": "B16 [7]", "value": 5.3, "unit": "µM"}, {"measurement": "Activity", "setting": "B16 [8]", "value": "Dose-dependent effect"}]}
